Patent US7700587B2, “Haloperidol analogs” (Florida A&M University, priority 2004, dated 2010)

Tests used:
Swiss male mice = assay: Apomorphine induced climbing-stereotypy; format: in vivo; conditions: for inhibition of apomorphine induced climbing (dopamine receptor antagonist in vivo): intraperitoneal, apomorphine challenge
Male SD rats = assay: Bar test for catalepsy; format: in vivo; conditions: for statistical comparison of effects in catalepsy bar test (t-test, p<0.05): all four doses; for catalepsy (EPS) in bar test: subcutaneous, at the doses used
Procedure: Bar test for catalepsy: A modified bar test by Needham et al, supra was used. […] Catalepsy severity was assessed immediately at various time points (15, 30, 45, 60, and 90 min) post injection, by scoring how long the rat maintained both forepaws motionless on a horizontal metal bar (1.1 cm in diameter, 10 cm above the bench top in a box). A score of 1 was given for every 5 seconds (2 min. maximum) the animal remained on the bar. Mean scores from 5 animals per time point were recorded for catalepsy and plotted in FIG. 2.
Statistical analysis: The student t-test was used to compare the three compounds used in the animal behavioral tests. Results were considered significant at p<0.05.

| Molecule | inhibition of apomorphine induced climbing (dopamine receptor antagonist in vivo) (Swiss male mice) | statistical comparison of effects in catalepsy bar test (t-test, p<0.05) (Male SD rats) | statistical comparison of effects in catalepsy bar test (t-test, p<0.05) (Male SD rats; listed as the analog) | catalepsy (EPS) in bar test (Male SD rats; listed as 2) | catalepsy (EPS) in bar test (Male SD rats; listed as drawing 7) | statistical comparison of effects in climbing test (t-test, p<0.05) (Swiss male mice; all four doses) | inhibition of apomorphine induced climbing (dopamine receptor antagonist in vivo) (Swiss male mice; listed as 2) | inhibition of apomorphine induced climbing (dopamine receptor antagonist in vivo) (Swiss male mice; listed as drawing 7) |
| --- | --- | --- | --- | --- | --- | --- | --- | --- |
| 8-chloro-1-(4-methyl-1-piperazinyl)-5H-dibenzo[b,e]-[1,4]-diazepine [Clozapine (3), reference compound] | acting as a dopamine receptor antagonist |  |  |  |  |  |  |  |
| O=C(CCCN1CCC(O)(c2ccc(Cl)cc2)C1)c1ccc(F)cc1 (racemic) [Analog [A] (2), 4-[3-hydroxy-3-(4′-chlorophenyl)pyrrolidinyl]-4″-fluorobutyrophenone] |  | statistically similar to clozapine's | significantly different from compound 1 but non significantly different from compound 3 | no catalepsy | much less severe EPS (manifested as catalepsy in animal models) than haloperidol | significantly different from compound 1 but non significantly different from compound 3 | could inhibit apormophine induced climbing in mice | act as antidopaminergics in vivo |
| O=C(CCCN1CCC(O)(c2ccc(Cl)cc2)CC1)c1ccc(F)cc1 [Haloperidol (1), 4-[4-(4-chlorophenyl)-4-hydroxy-1-piperidinyl]-1-(4-fluorophenyl)-1-butanone, reference compound] | acting as a dopamine receptor antagonist |  |  |  |  |  |  |  |
